According to patent US20230084978A1, “OPTIMIZATION OF PEPTIDE-MELANIN BINDING” (ASSITANCE PUBLIQUE - HÔPITAUX DE PARIS, priority 2020, published 2023):
Non-standard residues stand in square brackets, D forms with d. No end group written: not given here. Hyp = O=C(O)[C@@H]1C[C@@H](O)CN1

Legend:
[1] = Binding of peptides to synthetic melanin (Tricine-SDS-PAGE analysis); settings: for Binding of peptides on synthetic melanin, Mel + peptide 2 hours at pH 7.4: filtered (10 kDa) preformed melanin; for Binding of peptides on synthetic melanin, Mel + peptide 2 hours at pH 7.4 / Binding of peptides on synthetic melanin, Mel + peptide 18 hours at pH 7.4 / Binding of peptides on synthetic melanin, Mel + peptide 18 hours at pH 8.5 / Binding of peptides on synthetic melanin, Mel + peptide 10 minutes / Binding of peptides on synthetic melanin, Mel + peptide 2 hours / Binding of peptides on synthetic melanin, Mel + peptide 18 hours: peptide/L-Dopa 1/4; for Binding of peptides on synthetic melanin, Mel + peptide 18 hours at pH 7.4 / Binding of peptides on synthetic melanin, Mel + peptide 18 hours at pH 8.5: filtered preformed melanin; for Binding of peptides on synthetic melanin, Mel + peptide: L-Dopa polymerized first, peptide added (1/4); for Binding of peptides on synthetic melanin, Peptide-Mel: peptide/L-Dopa 1/4 mixed, then 2 hours at pH 8.5 and 60° C.; for Binding of peptides on synthetic melanin, Mel + peptide 10 minutes / Binding of peptides on synthetic melanin, Mel + peptide 2 hours / Binding of peptides on synthetic melanin, Mel + peptide 18 hours: filtered preformed melanin at pH 7.5; for peptide binding to melanin: binding-promoting amino-acid at NH2-terminal vs COOH terminal end
From the text: The binding of the peptide to the melanin can be verified by Tricine-SDS-PAGE analysis as described in Carpentier; 2017 (op. cit.). Briefly, samples (peptide-Mel or peptide alone) are loaded on acrylamide gels. Following electrophoresis, the gels are stained with Coomassie Brilliant Blue R-250, allowing the quantification of the free peptide in the gel. The binding of peptides to melanin can be expressed as the ratio: [amount of unbound peptide in samples Peptide-Mel/amount of peptides in control samples containing peptides alone.
Peptides were mixed with L-Dopa (weight ratio peptide/L-Dopa=1/4 and 1/6 for gp100 and EphA2, respectively) then incubated for 2 hours at pH 8.5 and 60° C. under agitation to ensure oxygenation of the solution to generate nanoparticles of melanin-bound peptides (Peptide-Mel). Alternatively, L-Dopa alone (0.8 mg/ml) was polymerized into melanin for 2 h at pH 8.5 and 60° C. under agitation, before the peptides (weight ratio peptide/L-Dopa=1/4 and 1/6 for gp100 and EphA2, respectively) were added to the solution (Mel+peptide). Tricine-SDS-PAGE analysis was performed as described in Carpentier; 2017 (op. cit.). Briefly, samples (peptide-Mel or peptide alone) were loaded on acrylamide gels. Following electrophoresis, the gels were stained with Coomassie Brilliant Blue R-250 and imaged with the ChemiDoc XRS+ system (Bio-Rad Laboratory), allowing the quantification of the free peptide in the gel. The binding of peptides to melanin was expressed as the ratio: [amount of unbound peptide in samples Peptide-Mel/amount of peptides in control samples containing peptides alone]
First column (Peptide-Mel): L-Dopa (0.8 mg/ml) was mixed with peptides (weight ratio peptide/L-Dopa=1/4) then incubated for 2 hours at pH 8.5 and 60° C. to generate nanoparticles of melanin-bound peptides. Alternatively (second column; Mel+peptide), L-Dopa alone (0.8 mg/ml) was first polymerized into melanin for 2 h at pH 8.5 and 60° C. under vigorous agitation, before the peptides (weight ratio peptide/L-Dopa=1/4) were added to the solution and incubated for 2 hours at room temperature. In both cases, the percentage of peptides that bound to melanin was then quantified with SPS-page analysis, as described in table 1. (ND=not done)
(§1) L-Dopa (0.8 mg/ml) underwent an oxidative polymerization at pH 8.5 in aerobic conditions for 2 hours at 60° C. The reaction mixture was then filtered on a 10 kDa filter, and the retentate containing the synthetic melanin was resuspended at pH 7.5 in phosphate buffer. Peptides were then added (at the weight ratio peptide/L-Dopa=1/4) and the mixture was incubated for various periods of time and or pH. The percentage of peptides that bound to melanin was then quantified with SPS-page analysis, as described in table 1. (ND=not done).
as §1, with “8.5 and 60° C.” for “8.5 in aerobic conditions”, “2 hours.” for “2 hours at 60° C.”, “of time. Binding” for “of time and or pH. The percentage”, “of the” for “of”, “peptides” for “peptides that bound to melanin”, “(ND=not done)” for “(ND=not done).”

[2] = test system: humanized female HLADRB1* 0101/HLA-A*0201 (HHD DR1) mice; assay: CTL response (IFNg-SFCs of re-stimulated splenocytes) after subcutaneous immunization in humanized mice; type: in vivo; settings: 10 μg/mouse subcutaneous, day 8, more than 10 spots is positive
Description: CTL response was evaluated after subcutaneous immunizations in humanized female HLADRB1* 0101/HLA-A*0201 (HHD DR1) mice.
L-Dopa (0.8 mg/ml) underwent an oxidative polymerization at pH 8.5 in aerobic conditions for 2 hours at 60° C. The reaction mixture was then filtered on a 10 kDa filter, and the retentate containing the synthetic melanin was resuspended at pH 7.5 in phosphate buffer.
Peptides (A10, SEQ ID NO: 29; A8, SEQ ID NO: 34; A30, SEQ ID NO: 31, 10 μg/mouse) were then added (at the weight ratio peptide/L-Dopa=1/4).
Mixtures (either Mel+peptides or Peptides alone) were rapidly (<1 hour) used for subcutaneous immunizations in mice. Phosphorothioate oligonucleotide CpG-28 (5′-[…], SEQ ID NO: 21) was added to vaccine formulations (10 μg/mouse) just before the immunizations. Mice were sacrificed on day 8 and the CTL response was performed as described in Carpentier; 2017. Briefly, splenocytes were re-stimulated in vitro with the corresponding peptide (non-conjugated to melanin) and the numbers of IFNg-SFCs (Spot forming cells) were measured and expressed as Mean+/−S.E.M. (n=4 to 8 mice/group). More than 10 spots is considered as a positive immune response

| Substance | Binding of peptides on synthetic melanin, Mel + peptide 2 hours at pH 7.4 [1] [%] | Binding of peptides on synthetic melanin, Mel + peptide 18 hours at pH 7.4 [1] [%] | Binding of peptides on synthetic melanin, Mel + peptide 18 hours at pH 8.5 [1] [%] | Binding of peptides on synthetic melanin, Mel + peptide ([1]; 2 hours at room temperature) [%] | Binding of peptides on synthetic melanin, Peptide-Mel [1] [%] | also measured |
| --- | --- | --- | --- | --- | --- | --- |
| Acetyl-K SIYRYYGL (Ac-KSIYRYYGL) [SEQ ID NO: 7] | 0 | 31 | 62 | – | – | – |
| Acetyl-R C SIYRYYGL (Ac-RCSIYRYYGL) [SEQ ID NO: 8] | 53 | 46 | 42 | 53 | 74 | – |
| Acetyl-R F SIYRYYGL (Ac-RFSIYRYYGL) [SEQ ID NO: 13] | 0 | – | – | 0 | 5 | – |
| Acetyl-R H SIYRYYGL (Ac-RHSIYRYYGL) [SEQ ID NO: 9] | – | – | – | – | 60 | – |
| Acetyl-R M SIYRYYGL (Ac-RMSIYRYYGL) [SEQ ID NO: 11] | 0 | 13 | 32 | – | – | – |
| Acetyl-R S SIYRYYGL (Ac-RSSIYRYYGL) [SEQ ID NO: 10] | 0 | 12 | – | – | – | – |
| Acetyl-R SIYRYYGL (Ac-RSIYRYYGL) [SEQ ID NO: 4] | 17 | 2 | 0 | 17 | 0 | melanin binding (in words), Peptide-Mel ([1]; peptide mixed with L-Dopa, 2 hours at pH 8.5): No binding |
| Acetyl-R T SIYRYYGL (Ac-RTSIYRYYGL) [SEQ ID NO: 12] | 0 | – | – | 0 | 10 | – |
| Acetyl-R W SIYRYYGL (Ac-RWSIYRYYGL) [SEQ ID NO: 14] | 0 | – | – | 0 | 56 | – |
| C KVPRNQDWL (CKVPRNQDWL; Modified gp100 peptide) [SEQ ID NO: 17] | – | – | – | – | – | Binding of peptides on synthetic melanin, Mel + peptide 10 minutes [1]: 9%; Binding of peptides on synthetic melanin, Mel + peptide 2 hours [1]: 54%; Binding of peptides on synthetic melanin, Mel + peptide 18 hours [1]: 99%; binding to melanin (in words), cysteine in oxidized or reduced state ([1]; preformed filtered melanin, 2 hours at room temperature): Binding was observed in both cases |
| CKSVWSKLQSIGIRQH (Modified UCP2 Peptide) [A10] | – | – | – | – | – | numbers of IFNg-SFCs (Spot forming cells), Mean ([2]; Mel + pept + CpG-28): 150; numbers of IFNg-SFCs (Spot forming cells), Mean ([2]; Pept + CpG-28): 18 |
| CKVFAGIPTV (Modified PTPRZ1 Epitope) [A30] | – | – | – | – | – | numbers of IFNg-SFCs (Spot forming cells), Mean ([2]; Mel + pept + CpG-28): 182 |
| CKVFAGIPTVASDTV (Modified PTPRZ1 Epitope) [A8] | – | – | – | – | – | numbers of IFNg-SFCs (Spot forming cells), Mean ([2]; Mel + pept + CpG-28): 29; numbers of IFNg-SFCs (Spot forming cells), Mean ([2]; Pept + CpG-28): 5 |
| HydroxP KVPRNQDWL ([Hyp]KVPRNQDWL) [SEQ ID NO: 16] | – | – | – | – | – | Binding of peptides on synthetic melanin, Mel + peptide 10 minutes [1]: 12%; Binding of peptides on synthetic melanin, Mel + peptide 2 hours [1]: 35%; Binding of peptides on synthetic melanin, Mel + peptide 18 hours [1]: 100% |
| HydroxyP SIYRYYGL ([Hyp]SIYRYYGL) [SEQ ID NO: 6] | 23 | 39 | 74 | 23 | 95 | – |
| M KVPRNQDWL (MKVPRNQDWL; Modified gp100 peptide) [SEQ ID NO: 18] | – | – | – | – | – | Binding of peptides on synthetic melanin, Mel + peptide 10 minutes [1]: 7%; Binding of peptides on synthetic melanin, Mel + peptide 2 hours [1]: 43%; Binding of peptides on synthetic melanin, Mel + peptide 18 hours [1]: 100% |
| P KVPRNQDWL (PKVPRNQDWL; Modified gp100 peptide) [SEQ ID NO: 15] | – | – | – | – | – | Binding of peptides on synthetic melanin, Mel + peptide 10 minutes [1]: 13%; Binding of peptides on synthetic melanin, Mel + peptide 2 hours [1]: 11%; Binding of peptides on synthetic melanin, Mel + peptide 18 hours [1]: 100% |
| P SIYRYYGL (PSIYRYYGL; Modified test peptide) [SEQ ID NO: 5] | 7 | 22 | 41 | 7 | 87 | – |
| SIYRYYGL [SEQ ID NO: 3, reference compound] | 0 | 28 | 31 | 0 | 90 | – |
| VYDFFVWL-X [SEQ ID NO: 20] | – | – | – | – | – | peptide binding to melanin [1]: 55% |
| X-VYDFFVWL [SEQ ID NO: 19] | – | – | – | – | – | peptide binding to melanin [1]: 51% |
